Results taken from ChEMBL document CHEMBL1129781, “Inhibition of protein phosphatase 2A by cantharidin analogues” (Bioorg Med Chem Lett, 1996).

Columns and labels:
Mus musculus [1] = species: Mus musculus; assay: Inhibition of Protein Phosphatase 2A (PP2A) partially purified from mouse brain; type: tissue-based; set-up: concentration or dose not given beside the values; settings: concentration not given here
Mus musculus [2] = species: Mus musculus; assay: Compound was tested for inhibition of cantharidin-binding protein(CBP) phosphatase isolated from mouse liver: Range= 22-51; settings: concentration not given here
[3] = Compound was tested for inhibition of specific [3H]cantharidin binding to CBP: Range= 10-50; set-up: species or system Mus musculus
[4] = Compound was tested for inhibition of specific [3H]cantharidin binding to CBP: Range= 200->100000; set-up: species or system Mus musculus
Mus musculus [5] = species: Mus musculus; assay: Compound was tested for inhibition of cantharidin-binding protein(CBP) phosphatase isolated from mouse liver.; set-up: concentration or dose not given beside the values; settings: concentration not given here
[6] = target: Serine/threonine-protein phosphatase 2A 65 kDa regulatory subunit A alpha isoform (Mus musculus, UniProt Q76MZ3); assay: Compound was tested for inhibitory concentration of Protein Phosphatase 2A (PP2A).
Serine/threonine-protein phosphatase 2A 65 kDa regulatory subunit A alpha isoform, sequence (Q76MZ3 whole entry, canonical isoform): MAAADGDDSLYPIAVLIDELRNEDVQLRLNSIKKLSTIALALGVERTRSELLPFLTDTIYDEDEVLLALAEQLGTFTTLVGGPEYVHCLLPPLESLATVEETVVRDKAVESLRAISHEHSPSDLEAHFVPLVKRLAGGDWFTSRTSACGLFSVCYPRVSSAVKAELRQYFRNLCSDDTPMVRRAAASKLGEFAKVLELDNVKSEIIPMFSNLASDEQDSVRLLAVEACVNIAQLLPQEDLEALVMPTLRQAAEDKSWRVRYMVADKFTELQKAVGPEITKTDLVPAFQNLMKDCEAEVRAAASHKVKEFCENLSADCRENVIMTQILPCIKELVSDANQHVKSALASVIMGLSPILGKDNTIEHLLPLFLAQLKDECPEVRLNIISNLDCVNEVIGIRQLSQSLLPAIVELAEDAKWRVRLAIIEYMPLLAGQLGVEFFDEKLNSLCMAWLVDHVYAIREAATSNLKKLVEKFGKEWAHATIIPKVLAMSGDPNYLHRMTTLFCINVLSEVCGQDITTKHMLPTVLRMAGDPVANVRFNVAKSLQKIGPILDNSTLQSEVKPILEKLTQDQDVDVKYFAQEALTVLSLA

[7] = Compound was tested for inhibition of specific [3H]cantharidin binding to CBP.; set-up: species or system Mus musculus
[8] = Compound was tested for inhibition of specific [3H]cantharidin binding to CBP: Range=4-8; set-up: species or system Mus musculus
Mus musculus [9] = species: Mus musculus; assay: Compound was tested for inhibition of cantharidin-binding protein(CBP) phosphatase isolated from mouse liver: Range=92-95; settings: concentration not given here

COC(=O)C1CC2C=CC1C2 (stereo unspecified) showed an inhibition (Mus musculus [1]) of 30.8%.
O=C(O)[C@@H]1[C@H](C(=O)O)[C@H]2CC[C@@H]1O2 [ENDOTHALL] showed an inhibition (Mus musculus [2]) of 51% and an IC50 [3] of 0.05 µM.
Work on O=C1OC(=O)C2C3CCC(C3)C12 (stereo in doubt; 7) yielded an inhibition (Mus musculus [1]) of 38.7%.
In the case of N#CCC1CC2OC1C(C(=O)O)C2C(=O)O (stereo unspecified), the IC50 [4] is reported as greater than 100 µM and the inhibition (Mus musculus [5]) is reported as 0%.
O=C1OC(=O)C2C3CCC(C3)C12 (stereo in doubt; 11) showed an inhibition (Mus musculus [1]) of 13.3%.
Molecule O=C(O)C1C2C=CC(O2)C1C(=O)O (stereo unspecified) has an IC50 [6] of 300 µM and an inhibition (Mus musculus [1]) of 80.3%.
O=C1OC(=O)C23CCCC12C1CCC3O1 (stereo unspecified) showed an IC50 [7] of 4 µM and an inhibition (Mus musculus [5]) of 95%.
O=C1OC(=O)C2C3CCC(O3)C12 (stereo unspecified) [DEMETHYL-CANTHARIDIN] showed an IC50 [6] of 70 µM and an inhibition (Mus musculus [1]) of 88.3%.
For CC12C(=O)OC(=O)C1(C)C1CCC2O1 (stereo unspecified), the IC50 [6] was 8 µM, the IC50 [8] was 0.004 µM and the inhibition (Mus musculus [1]) was 95%. For the same molecule, the inhibition (Mus musculus [9]) was 92%.
In the case of O=C1OC(=O)[C@H]2[C@@H]1[C@H]1C=C[C@H]2C1 (stereo in doubt; 5), the inhibition (Mus musculus [1]) is reported as 48.1%.
Molecule O=C(O)C1CC=CCC1C(=O)O (stereo unspecified) has an inhibition (Mus musculus [1]) of 12.2%.
With CCOC(=O)C1CC2OC1C(C(=O)O)C2C(=O)O (stereo unspecified) the IC50 [4] was greater than 100 µM and the inhibition (Mus musculus [5]) was 0%.
Molecule CC12CCC(C)(O1)C(C(=O)O)C2C(=O)O (stereo unspecified) has an IC50 [4] greater than 100 µM and an inhibition (Mus musculus [5]) of 0%.
In the case of CC1(C(=O)O)C2CCC(O2)C1C(=O)O (stereo unspecified), the inhibition (Mus musculus [2]) is reported as 51% and the IC50 [3] is reported as 0.05 µM.
With O=C(O)C1CC2C=CC1C2 (stereo unspecified) the inhibition (Mus musculus [1]) was 3.8%.
With O=C1OC(=O)C2C3C=CC(O3)C12 (stereo unspecified) the IC50 [6] was 40 µM and the inhibition (Mus musculus [1]) was 95.2%.
Molecule O=C(O)C1CC2OC1C(C(=O)O)C2C(=O)O (stereo unspecified) has an inhibition (Mus musculus [2]) of 51% and an IC50 [3] of 0.05 µM.
O=C1OC(=O)[C@H]2[C@@H]1[C@H]1C=C[C@H]2C1 (stereo in doubt; 6) gave an inhibition (Mus musculus [1]) of 48.8%.
Molecule CC1(C(=O)O)C2CCC(O2)C1(C)C(=O)O (stereo unspecified) [CANTHARIDIC_ACID] has an IC50 [7] of 4 µM and an inhibition (Mus musculus [5]) of 95%.
O=C1OC(=O)C2CCCCC12 (stereo unspecified) gave an inhibition (Mus musculus [1]) of 9.2%.
In the case of O=C1OC(=O)C2CC=CCC12 (stereo unspecified), the inhibition (Mus musculus [1]) is reported as 24%.
O=C(O)C1C2C=CC(C2)C1C(=O)O (stereo unspecified) showed an inhibition (Mus musculus [1]) of 17.2%.
